# Data as given in US9682148B2, “Solid oral dosage form of testosterone derivative” (Solural Pharma APS, priority 2012, dated 2017).
# Legend:
# [1] = Estimate of maximal amount of lymphatic absorbed TU; settings: estimated: 25% of solubility x 120 mg/g x 3.5 g triglyceride/10 h, formulation of 600 mg fat
# Text: The maximal amount of lymphatic absorbed TU can be estimated from the solubility of Testosterone Undecanoate in triglyceride and the transported triglyceride (Int. J. Pharm., vol. 34, 175-178, 1986).
# [2] = cited from earlier work
compound,measurement,setting,value
CCCCCCCCCCC(=O)O[C@H]1CC[C@H]2[C@@H]3CCC4=CC(=O)CC[C@]4(C)[C@H]3CC[C@]12C [Testosterone Undecanoate],maximal amount of lymphatic absorbed TU,[1],~100 mg
same,solubility in triglyceride,[2],120 mg/g
